Assay results taken from publication PMC11742793 (BMC Chemistry, 2025).

Molecular target: P. falciparum lactate dehydrogenase (PfLDH) (Plasmodium falciparum, UniProt Q76NM3)
Experiment: microscale thermophoresis
Assay type: binding

Chain of P. falciparum lactate dehydrogenase (PfLDH) (Q76NM3 1-316): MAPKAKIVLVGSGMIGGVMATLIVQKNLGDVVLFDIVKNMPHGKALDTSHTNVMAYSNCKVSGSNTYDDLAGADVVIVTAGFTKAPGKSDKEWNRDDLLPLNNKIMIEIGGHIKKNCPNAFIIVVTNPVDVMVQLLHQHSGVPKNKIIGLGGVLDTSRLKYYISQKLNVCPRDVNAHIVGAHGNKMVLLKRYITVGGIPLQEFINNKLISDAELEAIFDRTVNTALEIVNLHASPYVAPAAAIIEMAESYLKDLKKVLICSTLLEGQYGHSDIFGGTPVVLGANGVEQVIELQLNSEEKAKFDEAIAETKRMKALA

## C=C(C)[C@@H]1CC[C@]2(C(=O)O)CC[C@]3(C)[C@H](CC[C@@H]4[C@@]5(C)CC[C@H](O)C(C)(C)[C@@H]5CC[C@]43C)[C@@H]12 [BA, betulinic acid]
  Kd: 0.104 µM
